Measurements from ChEMBL document CHEMBL3621178, “Antidiabetic effect of novel benzenesulfonylureas as PPAR-γ agonists and their anticancer effect” (Bioorg Med Chem Lett, 2015).
Activity calls are given as the source filed them. No cut-off for these calls is given here.

How the values were obtained:
Rattus norvegicus = experiment: Antidiabetic activity in Wistar rat assessed as reduction in blood glucose level at 30 mg/kg, po dosed 30 mins before glucose challenge and measured 30 and 60 mins post glucose challenge by OGTT method; assay type: functional, organism-based
CCRF-CEM = experiment: Growth inhibition of human CCRF-CEM cells assessed as cell viability at 10 uM incubated for 48 hrs by sulforhodamine B assay; assay type: functional; settings: read-out: Activity
[1] = Growth inhibition of human RPMI8226 cells assessed as cell viability at 10 uM incubated for 48 hrs by sulforhodamine B assay; assay type: functional; settings: RPMI-8226, 48 h, read-out: Activity
[2] = Growth inhibition of human HOP92 cells assessed as cell viability at 10 uM incubated for 48 hrs by sulforhodamine B assay; assay type: functional; settings: HOP-92, 48 h, read-out: Activity
NCI-H23 = experiment: Growth inhibition of human NCI-H23 cells assessed as cell viability at 10 uM incubated for 48 hrs by sulforhodamine B assay; assay type: functional; settings: NCI-H23, 48 h, read-out: Activity
NCI-H322M = experiment: Growth inhibition of human NCI-H322M cells assessed as cell viability at 10 uM incubated for 48 hrs by sulforhodamine B assay; assay type: functional; settings: read-out: Activity
NCI-H460 = experiment: Growth inhibition of human NCI-H460 cells assessed as cell viability at 10 uM incubated for 48 hrs by sulforhodamine B assay; assay type: functional; settings: NCI-H460, 48 h, read-out: Activity
[3] = Growth inhibition of human HCC2998 cells assessed as cell viability at 10 uM incubated for 48 hrs by sulforhodamine B assay; assay type: functional; settings: HCC 2998, 48 h, read-out: Activity
KM12 = experiment: Growth inhibition of human KM12 cells assessed as cell viability at 10 uM incubated for 48 hrs by sulforhodamine B assay; assay type: functional; settings: KM12, 48 h, read-out: Activity
SW-620 = experiment: Growth inhibition of human SW620 cells assessed as cell viability at 10 uM incubated for 48 hrs by sulforhodamine B assay; assay type: functional; settings: SW-620, 48 h, read-out: Activity
SF-268 = experiment: Growth inhibition of human SF268 cells assessed as cell viability at 10 uM incubated for 48 hrs by sulforhodamine B assay; assay type: functional; settings: SF-268, 48 h, read-out: Activity
[4] = Growth inhibition of human SF295 cells assessed as cell viability at 10 uM incubated for 48 hrs by sulforhodamine B assay; assay type: functional; settings: SF-295, 48 h, read-out: Activity
[5] = Growth inhibition of human SF539 cells assessed as cell viability at 10 uM incubated for 48 hrs by sulforhodamine B assay; assay type: functional; settings: SF-539, 48 h, read-out: Activity
U-251 = experiment: Growth inhibition of human U251 cells assessed as cell viability at 10 uM incubated for 48 hrs by sulforhodamine B assay; assay type: functional; settings: U-251, 48 h, read-out: Activity
[6] = Growth inhibition of human LOXIMVI cells assessed as cell viability at 10 uM incubated for 48 hrs by sulforhodamine B assay; assay type: functional; settings: LOX IMVI, read-out: Activity
M14 = experiment: Growth inhibition of human M14 cells assessed as cell viability at 10 uM incubated for 48 hrs by sulforhodamine B assay; assay type: functional; settings: M14, 48 h, read-out: Activity
MDA-MB-435 = experiment: Growth inhibition of human MDA-MB-435 cells assessed as cell viability at 10 uM incubated for 48 hrs by sulforhodamine B assay; assay type: functional; settings: MDA-MB-435, 48 h, read-out: Activity
SK-MEL-28 = experiment: Growth inhibition of human SK-MEL-28 cells assessed as cell viability at 10 uM incubated for 48 hrs by sulforhodamine B assay; assay type: functional; settings: SK-MEL-28, 48 h, read-out: Activity
SK-MEL-5 = experiment: Growth inhibition of human SK-MEL-5 cells assessed as cell viability at 10 uM incubated for 48 hrs by sulforhodamine B assay; assay type: functional; settings: SK-MEL-5, 48 h, read-out: Activity
UACC-257 = experiment: Growth inhibition of human UACC257 cells assessed as cell viability at 10 uM incubated for 48 hrs by sulforhodamine B assay; assay type: functional; settings: UACC-257, 48 h, read-out: Activity
UACC-62 = experiment: Growth inhibition of human UACC62 cells assessed as cell viability at 10 uM incubated for 48 hrs by sulforhodamine B assay; assay type: functional; settings: UACC-62, 48 h, read-out: Activity
OVCAR-3 = experiment: Growth inhibition of human OVCAR3 cells assessed as cell viability at 10 uM incubated for 48 hrs by sulforhodamine B assay; assay type: functional; settings: OVCAR-3, 48 h, read-out: Activity
OVCAR-4 = experiment: Growth inhibition of human OVCAR4 cells assessed as cell viability at 10 uM incubated for 48 hrs by sulforhodamine B assay; assay type: functional; settings: OVCAR-4, 48 h, read-out: Activity
OVCAR-8 = experiment: Growth inhibition of human OVCAR8 cells assessed as cell viability at 10 uM incubated for 48 hrs by sulforhodamine B assay; assay type: functional; settings: OVCAR-8, 48 h, read-out: Activity
[7] = Growth inhibition of human NCI-ADR-RES cells assessed as cell viability at 10 uM incubated for 48 hrs by sulforhodamine B assay; assay type: functional; settings: read-out: Activity
786-0 = experiment: Growth inhibition of human 786-0 cells assessed as cell viability at 10 uM incubated for 48 hrs by sulforhodamine B assay; assay type: functional; settings: 786-0, 48 h, read-out: Activity
ACHN = experiment: Growth inhibition of human ACHN cells assessed as cell viability at 10 uM incubated for 48 hrs by sulforhodamine B assay; assay type: functional; settings: read-out: Activity
[8] = Growth inhibition of human RXF393 cells assessed as cell viability at 10 uM incubated for 48 hrs by sulforhodamine B assay; assay type: functional; settings: RXF 393, 48 h, read-out: Activity
SN12C = experiment: Growth inhibition of human SN12C cells assessed as cell viability at 10 uM incubated for 48 hrs by sulforhodamine B assay; assay type: functional; settings: read-out: Activity
UO-31 = experiment: Growth inhibition of human UO31 cells assessed as cell viability at 10 uM incubated for 48 hrs by sulforhodamine B assay; assay type: functional; settings: UO-31, 48 h, read-out: Activity
PC-3 = experiment: Growth inhibition of human PC3 cells assessed as cell viability at 10 uM incubated for 48 hrs by sulforhodamine B assay; assay type: functional; settings: PC-3, 48 h, read-out: Activity
DU-145 = experiment: Growth inhibition of human DU145 cells assessed as cell viability at 10 uM incubated for 48 hrs by sulforhodamine B assay; assay type: functional; settings: DU-145, 48 h, read-out: Activity
MDA-MB-231 = experiment: Growth inhibition of human MDA-MB-231 cells assessed as cell viability at 10 uM incubated for 48 hrs by sulforhodamine B assay; assay type: functional; settings: MDA-MB-231, 48 h, read-out: Activity
[9] = Growth inhibition of human Hs 578T cells assessed as cell viability at 10 uM incubated for 48 hrs by sulforhodamine B assay; assay type: functional; settings: read-out: Activity
T47D = experiment: Growth inhibition of human T47D cells assessed as cell viability at 10 uM incubated for 48 hrs by sulforhodamine B assay; assay type: functional; settings: read-out: Activity
MDA-MB-468 = experiment: Growth inhibition of human MDA-MB-468 cells assessed as cell viability at 10 uM incubated for 48 hrs by sulforhodamine B assay; assay type: functional; settings: MDA-MB-468, 48 h, read-out: Activity

Row | Structure (SMILES) | Activity (Rattus norvegicus) | viability at 10 µM (CCRF-CEM) | viability at 10 µM [1] | viability at 10 µM [2] | viability at 10 µM (NCI-H23) | viability at 10 µM (NCI-H322M) | viability at 10 µM (NCI-H460) | viability at 10 µM [3] | viability at 10 µM (KM12) | viability at 10 µM (SW-620) | viability at 10 µM (SF-268) | viability at 10 µM [4] | viability at 10 µM [5] | viability at 10 µM (U-251) | viability at 10 µM [6] | viability at 10 µM (M14) | viability at 10 µM (MDA-MB-435) | viability at 10 µM (SK-MEL-28) | viability at 10 µM (SK-MEL-5) | viability at 10 µM (UACC-257) | further results
1 | COc1ccc(C2CC(c3ccco3)=NN2c2ccc(S(=O)(=O)NC(=O)NCc3ccccc3)cc2)cc1 (configuration not stated) | Active | 99% | 102% | 80.6% | 108% | 97.5% | 106% | 109% | 105% | 104% | 103% | 95.9% | 90% | 99.3% | 102% | 102% | 103% | 101% | 102% | 97.9% | viability at 10 µM (UACC-62): 105%; viability at 10 µM (OVCAR-3): 113%; viability at 10 µM (OVCAR-4): 97.1%; viability at 10 µM (OVCAR-8): 97.9%; viability at 10 µM [7]: 104%; viability at 10 µM (786-0): 98.6%; viability at 10 µM (ACHN): 101%; viability at 10 µM [8]: 113%; viability at 10 µM (SN12C): 106%; viability at 10 µM (UO-31): 99.4%; viability at 10 µM (PC-3): 92.4%; viability at 10 µM (DU-145): 108%; viability at 10 µM (MDA-MB-231): 112%; viability at 10 µM [9]: 105%; viability at 10 µM (T47D): 84.6%; viability at 10 µM (MDA-MB-468): 101%
2 | COc1ccc(C2CC(c3cc4ccccc4oc3=O)=NN2c2ccc(S(=O)(=O)NC(=O)Nc3ccccc3C)cc2)cc1 (configuration not stated) | Active | 92.6% | 85.8% | 60.7% | 87.7% | 87.1% | 99.8% | 107% | 102% | 97.1% | 101% | 93.8% | 85.8% | 99.4% | 92.6% | 91.8% | 102% | 102% | 97.2% | 113% | viability at 10 µM (UACC-62): 89.2%; viability at 10 µM (OVCAR-3): 107%; viability at 10 µM (OVCAR-4): 86.9%; viability at 10 µM (OVCAR-8): 99.9%; viability at 10 µM [7]: 98.1%; viability at 10 µM (786-0): 94.2%; viability at 10 µM (ACHN): 89.7%; viability at 10 µM [8]: 116%; viability at 10 µM (SN12C): 99.2%; viability at 10 µM (UO-31): 68.9%; viability at 10 µM (PC-3): 81%; viability at 10 µM (DU-145): 111%; viability at 10 µM (MDA-MB-231): 65.9%; viability at 10 µM [9]: 84.8%; viability at 10 µM (T47D): 95.8%; viability at 10 µM (MDA-MB-468): 100%
